The source of these data is ChEMBL document CHEMBL5500392, “Functional and Structural Characterization of Clinical-Stage Janus Kinase 2 Inhibitors Identifies Determinants for Drug Selectivity” (J Med Chem, 2024).

For experiment [1], the target named is T1, Non-receptor tyrosine-protein kinase TYK2 (Homo sapiens, UniProt P29597). Put plainly: Binding affinity to recombinant human TYK2 JH2 (564 to 876-His residues) pseudokinase domain by fluorescence polarization assay. (In fluorescence polarisation assays a small probe gives low polarisation when free and higher when bound to something large.)
T1 sequence (P29597 whole entry, the tested form may be a part): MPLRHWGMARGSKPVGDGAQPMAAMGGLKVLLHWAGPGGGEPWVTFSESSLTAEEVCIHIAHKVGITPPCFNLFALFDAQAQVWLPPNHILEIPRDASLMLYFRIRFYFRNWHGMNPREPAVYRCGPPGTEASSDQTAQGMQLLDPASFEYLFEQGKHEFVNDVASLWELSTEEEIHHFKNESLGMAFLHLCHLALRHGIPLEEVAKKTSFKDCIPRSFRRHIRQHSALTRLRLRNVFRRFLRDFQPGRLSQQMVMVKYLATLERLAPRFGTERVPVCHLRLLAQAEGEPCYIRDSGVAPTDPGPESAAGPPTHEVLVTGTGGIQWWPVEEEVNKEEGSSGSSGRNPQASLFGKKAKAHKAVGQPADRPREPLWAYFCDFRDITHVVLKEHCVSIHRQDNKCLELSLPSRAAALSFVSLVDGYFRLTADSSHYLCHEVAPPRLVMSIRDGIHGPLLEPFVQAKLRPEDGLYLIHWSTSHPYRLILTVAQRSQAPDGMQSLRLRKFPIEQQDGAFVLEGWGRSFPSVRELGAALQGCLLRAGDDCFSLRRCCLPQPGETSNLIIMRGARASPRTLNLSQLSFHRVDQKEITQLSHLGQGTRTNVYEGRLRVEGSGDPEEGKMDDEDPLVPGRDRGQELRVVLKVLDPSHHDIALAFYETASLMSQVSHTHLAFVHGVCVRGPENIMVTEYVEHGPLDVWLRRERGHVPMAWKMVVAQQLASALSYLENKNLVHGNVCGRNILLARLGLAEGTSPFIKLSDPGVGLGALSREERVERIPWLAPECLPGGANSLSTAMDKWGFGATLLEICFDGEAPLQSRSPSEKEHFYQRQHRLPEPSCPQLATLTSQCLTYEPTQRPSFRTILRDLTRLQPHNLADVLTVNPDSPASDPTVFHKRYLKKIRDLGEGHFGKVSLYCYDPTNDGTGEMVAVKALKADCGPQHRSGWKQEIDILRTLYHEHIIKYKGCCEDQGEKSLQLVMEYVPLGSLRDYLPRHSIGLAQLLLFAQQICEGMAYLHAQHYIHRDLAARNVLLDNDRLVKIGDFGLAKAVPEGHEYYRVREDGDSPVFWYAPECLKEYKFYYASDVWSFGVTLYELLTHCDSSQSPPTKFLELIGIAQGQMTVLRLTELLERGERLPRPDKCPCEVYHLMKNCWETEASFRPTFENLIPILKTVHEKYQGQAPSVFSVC
Experiment [2] concerns the target T2, Tyrosine-protein kinase JAK1 (Homo sapiens, UniProt P23458). Put plainly: Binding affinity to recombinant human JAK1 JH2 (553 to 856-His residues) pseudokinase domain by fluorescence polarization assay.
Experiment [3] has as its target T3, Tyrosine-protein kinase JAK2 (Homo sapiens, UniProt O60674). Put plainly: Binding affinity to recombinant human JAK2 kinase domain (840 to 1132 residues) assessed as dissociation constant by ITC analysis. (In general: In ITC the heat of successive injections is recorded.)
Experiment [4] has as its target T3, Tyrosine-protein kinase JAK2. Put plainly: Inhibition of JAK2-mediated erythropoietin-induced STAT5 phosphorylation in human TF-1 cells pretreated for 60 mins followed by erythropoietin addition and measured after 15 mins by pacific orange/pacific blue NHS esters based Beckmann coulter flow cytometer. It is filed as cell-based. For orientation: In flow cytometry, cells or beads pass a laser one at a time.

The target in experiment [5] is T1, Non-receptor tyrosine-protein kinase TYK2. Put plainly: Inhibition of recombinant human TYK2 assessed as inhibition of substrate phosphorylation measured every 5 mins for 30 mins by LANCE Ultra kinase assay.
Experiment [6] addresses T3, Tyrosine-protein kinase JAK2. Put plainly: Binding affinity to recombinant human JAK2 kinase domain by fluorescence polarization assay.
For experiment [7] the target is unchanged. Put plainly: Inhibition of recombinant human JAK2 assessed as inhibition of substrate phosphorylation measured every 5 mins for 30 mins by LANCE Ultra kinase assay.
For experiment [8] the target is unchanged. To be noted: dose 30-200 µM.
For experiment [9], the target named is T2, Tyrosine-protein kinase JAK1. Put plainly: Inhibition of recombinant human JAK1 assessed as inhibition of substrate phosphorylation measured every 5 mins for 30 mins by LANCE Ultra kinase assay.
For experiment [10], the target named is T3, Tyrosine-protein kinase JAK2. The following applies: dose 30-200 µM. This is another data set of the same source.
The target is the same in experiment [11]. The following applies: dose 30-200 µM. The source holds these as a separate data set.
Experiment [12] has as its target T2, Tyrosine-protein kinase JAK1. Put plainly: Binding affinity to recombinant human JAK1 kinase domain by fluorescence polarization assay.
Experiment [13] deals with T1, Non-receptor tyrosine-protein kinase TYK2. Put plainly: Binding affinity to recombinant human TYK2 kinase domain by fluorescence polarization assay.
Experiment [14] is filed under the species Homo sapiens. Put plainly: Selectivity index, ratio of IC50 for inhibition of JAK1/JAK2-mediated IFNgamma-induced STAT1 phosphorylation in human whole blood CD33-positive monocytes to IC50 for inhibition of JAK1/TYK2-mediated IFN-alpha induced STAT1 phosphorylation in whole blood CD33-positive monocytes. It is filed as cell-based.
Experiment [15] is filed under the species Homo sapiens. Put plainly: Selectivity index, ratio of IC50 for inhibition of JAK2-mediated GM-CSF-induced STAT5 phosphorylation in human whole blood CD33-positive monocytes to IC50 for inhibition of JAK1/TYK2-mediated IFN-alpha induced STAT1 phosphorylation in whole blood CD33-positive monocytes. It counts as cell-based.
The target in experiment [16] is T4, Tyrosine-protein kinase JAK3 (Homo sapiens, UniProt P52333).
T4 sequence (P52333 whole entry): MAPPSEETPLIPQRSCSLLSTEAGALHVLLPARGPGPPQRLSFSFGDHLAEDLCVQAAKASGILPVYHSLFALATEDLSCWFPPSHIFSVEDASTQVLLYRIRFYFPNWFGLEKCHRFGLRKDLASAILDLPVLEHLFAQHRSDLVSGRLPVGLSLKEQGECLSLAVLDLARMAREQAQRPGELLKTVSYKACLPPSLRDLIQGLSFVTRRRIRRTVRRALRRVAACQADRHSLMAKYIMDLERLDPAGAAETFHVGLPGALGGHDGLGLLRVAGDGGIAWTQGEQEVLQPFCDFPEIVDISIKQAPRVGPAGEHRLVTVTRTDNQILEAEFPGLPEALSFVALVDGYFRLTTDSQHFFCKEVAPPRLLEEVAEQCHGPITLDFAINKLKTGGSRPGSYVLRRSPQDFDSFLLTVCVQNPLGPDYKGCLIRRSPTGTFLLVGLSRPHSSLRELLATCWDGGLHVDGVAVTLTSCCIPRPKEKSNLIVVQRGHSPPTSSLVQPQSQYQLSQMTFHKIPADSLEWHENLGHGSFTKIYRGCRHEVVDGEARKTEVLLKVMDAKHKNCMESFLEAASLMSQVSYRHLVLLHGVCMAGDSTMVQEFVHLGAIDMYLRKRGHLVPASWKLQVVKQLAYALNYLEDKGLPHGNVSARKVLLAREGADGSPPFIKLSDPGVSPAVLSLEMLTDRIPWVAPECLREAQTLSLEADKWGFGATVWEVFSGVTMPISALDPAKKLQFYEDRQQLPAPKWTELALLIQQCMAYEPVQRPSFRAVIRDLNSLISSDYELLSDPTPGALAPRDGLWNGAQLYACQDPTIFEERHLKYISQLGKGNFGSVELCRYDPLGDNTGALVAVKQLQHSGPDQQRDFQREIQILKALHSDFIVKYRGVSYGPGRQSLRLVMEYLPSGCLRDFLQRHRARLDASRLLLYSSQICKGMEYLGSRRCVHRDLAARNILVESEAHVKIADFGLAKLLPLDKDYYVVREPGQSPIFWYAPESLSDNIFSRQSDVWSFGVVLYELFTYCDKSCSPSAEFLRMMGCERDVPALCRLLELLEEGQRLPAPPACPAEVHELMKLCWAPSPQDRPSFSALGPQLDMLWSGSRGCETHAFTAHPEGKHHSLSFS
Put plainly: Binding affinity to recombinant human JAK3 kinase domain by fluorescence polarization assay.

The species entered for experiment [17] is Homo sapiens. Put plainly: Selectivity index, ratio of IC50 for inhibition of JAK1-mediated IL-6 induced STAT3 phosphorylation in human whole blood CD33-positive monocytes to IC50 for inhibition of JAK1/TYK2-mediated IFN-alpha induced STAT1 phosphorylation in whole blood CD33-positive monocytes. It is filed as cell-based.
Experiment [18] addresses T3, Tyrosine-protein kinase JAK2. Put plainly: Binding affinity to recombinant human JAK2 kinase domain (840 to 1132 residues) assessed as dissociation constant by fluorescence polarization measurement combined ITC analysis.
For experiment [19] the target is unchanged. Put plainly: Binding affinity to recombinant human JAK2 kinase domain (840 to 1132 residues) assessed as change in entropy at 30 to 200 uM by fluorescence polarization measurement combined ITC analysis. To be noted: dose 30-200 µM.
The target is the same in experiment [20]. Put plainly: Binding affinity to recombinant human JAK2 kinase domain (840 to 1132 residues) assessed as change in enthalpy at 30 to 200 uM by fluorescence polarization measurement combined ITC analysis. To be noted: dose 30-200 µM.
Experiment [21] has as its target T4, Tyrosine-protein kinase JAK3. Put plainly: Inhibition of recombinant human JAK3 assessed as inhibition of substrate phosphorylation measured every 5 mins for 30 mins by LANCE Ultra kinase assay.
The species entered for experiment [22] is Homo sapiens. Put plainly: Selectivity index, ratio of IC50 for inhibition of JAK1/JAK3-mediated IL-2 induced STAT5 phosphorylation in human whole blood CD4+ T cells to IC50 for inhibition of JAK1/TYK2-mediated IFN-alpha induced STAT1 phosphorylation in whole blood CD33-positive monocytes. It is filed as cell-based.
Experiment [23] concerns the target T3, Tyrosine-protein kinase JAK2. Put plainly: Binding affinity to recombinant human JAK2 kinase domain (840 to 1132 residues) assessed as gibbs free energy change at 30 to 200 uM by fluorescence polarization measurement combined ITC analysis. The following applies: dose 30-200 µM.
A short description of experiment [24]: Selectivity index, ratio of IC50 for cytotoxicity against IL-3 dependent humanized mouse BaF3 cells expressing wild type human JAK2 to IC50 for cytotoxicity against IL-3 dependent humanized mouse BaF3 cells expressing human JAK2 V617F mutant. It is filed as functional.
The test system of experiment [25] is BaF3. Put plainly: Cytotoxicity against IL-3 dependent humanized mouse BaF3 cells expressing wild type human JAK2 assessed as inhibition of cell growth incubated for 48 hrs by alamarBlue assay. It is filed as functional, cell-based.
Experiment [26] concerns BaF3. Put plainly: Cytotoxicity against IL-3 dependent humanized mouse BaF3 cells expressing human JAK2 V617F mutant assessed as inhibition of cell growth incubated for 48 hrs by alamarBlue assay. It counts as functional, cell-based.
The species entered for experiment [27] is Homo sapiens. Put plainly: Selectivity index, ratio of IC50 for recombinant human JAK1 kinase domain to IC50 for recombinant human JAK2 kinase domain.

Activity calls are given as the source filed them. The calls are words filed in the database; no cut-off is given here.

T2 sequence (P23458 whole entry, the tested form may be a part): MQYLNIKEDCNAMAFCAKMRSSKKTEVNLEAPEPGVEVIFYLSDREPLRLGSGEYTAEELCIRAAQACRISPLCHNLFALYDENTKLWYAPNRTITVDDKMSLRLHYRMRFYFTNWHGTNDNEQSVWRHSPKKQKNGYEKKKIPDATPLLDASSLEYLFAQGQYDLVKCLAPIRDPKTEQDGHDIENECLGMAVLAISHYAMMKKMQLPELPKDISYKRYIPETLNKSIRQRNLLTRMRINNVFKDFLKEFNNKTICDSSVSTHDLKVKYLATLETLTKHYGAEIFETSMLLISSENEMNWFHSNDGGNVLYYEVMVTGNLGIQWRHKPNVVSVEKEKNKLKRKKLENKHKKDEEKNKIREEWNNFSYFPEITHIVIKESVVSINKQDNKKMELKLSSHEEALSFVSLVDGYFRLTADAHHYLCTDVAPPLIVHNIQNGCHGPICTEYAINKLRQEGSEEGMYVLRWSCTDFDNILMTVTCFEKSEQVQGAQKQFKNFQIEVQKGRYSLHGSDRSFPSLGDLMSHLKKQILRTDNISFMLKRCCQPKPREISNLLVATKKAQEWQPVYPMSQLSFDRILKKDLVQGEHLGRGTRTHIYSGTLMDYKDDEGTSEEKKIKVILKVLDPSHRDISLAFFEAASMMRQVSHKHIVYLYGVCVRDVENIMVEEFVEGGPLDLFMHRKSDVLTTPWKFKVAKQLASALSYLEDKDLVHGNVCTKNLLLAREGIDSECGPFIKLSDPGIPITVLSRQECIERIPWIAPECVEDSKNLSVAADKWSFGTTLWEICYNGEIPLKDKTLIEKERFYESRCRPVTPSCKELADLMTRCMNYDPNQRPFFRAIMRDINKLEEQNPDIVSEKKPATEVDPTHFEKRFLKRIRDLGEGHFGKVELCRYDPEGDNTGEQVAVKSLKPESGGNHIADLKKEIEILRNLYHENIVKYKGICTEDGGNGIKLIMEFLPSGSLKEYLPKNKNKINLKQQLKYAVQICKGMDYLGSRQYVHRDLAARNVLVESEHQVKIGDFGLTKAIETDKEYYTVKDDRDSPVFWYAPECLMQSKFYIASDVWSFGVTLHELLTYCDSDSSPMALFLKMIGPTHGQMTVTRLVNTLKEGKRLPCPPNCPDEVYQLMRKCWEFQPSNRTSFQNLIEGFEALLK
T3 sequence (O60674 whole entry, the tested form may be a part): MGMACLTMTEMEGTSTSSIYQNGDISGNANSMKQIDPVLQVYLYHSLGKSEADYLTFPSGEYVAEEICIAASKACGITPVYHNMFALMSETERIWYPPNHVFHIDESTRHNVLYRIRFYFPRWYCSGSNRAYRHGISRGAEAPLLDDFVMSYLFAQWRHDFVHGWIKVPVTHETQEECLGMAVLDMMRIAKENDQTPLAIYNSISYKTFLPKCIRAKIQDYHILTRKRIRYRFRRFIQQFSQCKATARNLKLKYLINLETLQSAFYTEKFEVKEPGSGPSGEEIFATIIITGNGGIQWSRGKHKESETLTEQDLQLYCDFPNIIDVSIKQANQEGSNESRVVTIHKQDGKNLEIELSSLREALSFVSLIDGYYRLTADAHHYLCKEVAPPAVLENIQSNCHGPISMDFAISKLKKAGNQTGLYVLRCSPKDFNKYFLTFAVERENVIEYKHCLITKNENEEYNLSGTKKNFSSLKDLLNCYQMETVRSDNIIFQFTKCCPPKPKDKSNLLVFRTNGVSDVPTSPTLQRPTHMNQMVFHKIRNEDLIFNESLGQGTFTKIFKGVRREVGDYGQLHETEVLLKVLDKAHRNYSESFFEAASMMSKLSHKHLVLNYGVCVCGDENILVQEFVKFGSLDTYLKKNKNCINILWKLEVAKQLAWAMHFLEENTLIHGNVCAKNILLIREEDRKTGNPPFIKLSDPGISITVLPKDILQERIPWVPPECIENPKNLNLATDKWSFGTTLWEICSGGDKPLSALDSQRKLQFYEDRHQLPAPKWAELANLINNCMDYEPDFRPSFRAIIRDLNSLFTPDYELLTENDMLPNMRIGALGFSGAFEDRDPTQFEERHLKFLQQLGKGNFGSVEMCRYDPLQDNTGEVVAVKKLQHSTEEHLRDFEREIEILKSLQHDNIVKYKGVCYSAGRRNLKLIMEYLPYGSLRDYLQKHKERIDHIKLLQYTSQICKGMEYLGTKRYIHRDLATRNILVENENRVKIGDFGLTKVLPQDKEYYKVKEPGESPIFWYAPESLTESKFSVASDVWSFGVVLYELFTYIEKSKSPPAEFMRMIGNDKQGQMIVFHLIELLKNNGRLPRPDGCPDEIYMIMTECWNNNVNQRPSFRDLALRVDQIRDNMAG

With `O=C(Nc1c[nH]nc1-c1nc2ccc(CN3CCOCC3)cc2[nH]1)NC1CC1`, the outcome in experiment [1] and in [2] was Active.
In general, Kd refers to the concentration at which binding is half-saturated. In general, IC50 refers to the midpoint of a concentration-inhibition curve. In the case of `CCS(=O)(=O)N1CCN(c2ccc(Nc3ncc(C(N)=O)c(NC4CC4)n3)cc2)CC1` [CERDULATINIB], the Kd in [3] amounted to 8.9 nM; in experiment [6] it was 4.8 nM; in [12] it was 23 nM; in [13] it was 6.9 nM. The IC50 in [4] was 99 nM; in experiment [5] it was 26 nM; in [7], 11 nM; in experiment [9] it was 22 nM. The result in [1] and in experiment [2] was Active. In [8], the deltaH is -10.4 kcal/mol. The same molecule had a -TdeltaS in [10] of -0.4 kcal/mol. This molecule registered a deltaG in experiment [11] of -10.8 kcal/mol.
Regarding `O=C(Nc1c[nH]nc1-c1nc2cc(CN3CCOCC3)ccc2[nH]1)NC1CC1` [AT-9283], the IC50 in [9] came out at 65 nM. In [12], the Kd was found to be 37 nM.
As to `C1=N/C2=N/c3ccc(OCCN4CCCC4)c(c3)COC/C=C/COCc3cccc(c3)C(=C1)N2`, the outcome in experiment [1] was Active. The same molecule displayed a deltaH in experiment [8] of -7.6 kcal/mol. The -TdeltaS in [10] was -3.3 kcal/mol. This molecule showed a deltaG in experiment [11] of -10.9 kcal/mol.
For the molecule `Cc1cc(Nc2cc(CN3CCOCC3)c3nc(C)c(Cc4ccc(Cl)cc4F)n3n2)n[nH]1` [GANDOTINIB], the Ratio IC50 in the experiment filed under Homo sapiens [14] is 2.3; in the experiment filed under Homo sapiens [15] it was 7.5; in the experiment filed under Homo sapiens [17] it was 4; in the experiment listed under Homo sapiens [22], 1.1; in [24], 1.5. The IC50 in [4] turned out to be 155 nM; in experiment [5], 92 nM; in experiment [7], 6.2 nM; in [21] it was 199 nM; in [9], 7.3 nM. Moreover, the Kd worked out at 13 nM in experiment [16]; 11 nM in experiment [6]; 11 nM in experiment [18]; 8.2 nM in experiment [12]; 16 nM in experiment [13]. In addition, the -TdeltaS in [19] is -6.6 kcal/mol. Also, the deltaH in experiment [20] was -4.1 kcal/mol. In addition, the deltaG in experiment [23] was -10.7 kcal/mol.
As for `N#CCNC(=O)c1ccc(-c2ccnc(Nc3ccc(N4CCOCC4)cc3)n2)cc1`, the deltaH in [8] was -14.4 kcal/mol. Besides, in experiment [10], the -TdeltaS turned out to be 3.2 kcal/mol. Also, the deltaG in [11] is -11.3 kcal/mol.
Turning to `C[C@]12O[C@H](C[C@]1(O)CO)n1c3ccccc3c3c4c(c5c6ccccc6n2c5c31)CNC4=O`, the outcome with BaF3 [25] and in the experiment with BaF3 [26] was Active.
Take `C[C@H](Nc1cc(-c2cnn(C)c2)cc(Nc2cnccn2)n1)c1ccc(F)cc1` [NS-018]: the Kd amounted to 4 nM in experiment [3]; 19 nM in [16]; 4.5 nM in experiment [6]; 16 nM in experiment [12]; 21 nM in experiment [13]. In addition, the Ratio IC50 in the experiment listed under Homo sapiens [14] turned out to be 0.6; in the experiment filed under Homo sapiens [15], 5.8; in the experiment listed under Homo sapiens [17], 2.8; in the experiment filed under Homo sapiens [27], 9; in the experiment listed under Homo sapiens [22], 1.7. Further, the IC50 stood at 41 nM in experiment [4]; 216 nM in experiment [5]; 0.8 nM in experiment [7]; 182 nM in experiment [21]; 7.1 nM in experiment [9]. This molecule also yielded a deltaH in experiment [8] of -12.5 kcal/mol. In [10], this molecule registered a -TdeltaS of 1.2 kcal/mol. In addition, the deltaG in [11] was -11.3 kcal/mol.
`N#CC[C@H](C1CCCC1)n1cc(-c2ncnc3[nH]ccc23)cn1`: the result with BaF3 [25] and in the experiment with BaF3 [26] was Active.
For `N#CCC1(n2cc(-c3ncnc4[nH]ccc34)cn2)CN(C2CCN(C(=O)c3ccnc(C(F)(F)F)c3F)CC2)C1` [ITACITINIB], the Kd was found to be 10.7 nM in [3]; 324 nM in experiment [16]; 26 nM in [6]; 51 nM in experiment [12]; 385 nM in [13]. Besides, the Ratio IC50 in the experiment listed under Homo sapiens [14] is 0.8; in the experiment listed under Homo sapiens [15], 16.7; in the experiment listed under Homo sapiens [17] it was 1.2; in the experiment filed under Homo sapiens [22] it was 0.4. For the same molecule, the IC50 is 488 nM in [4]; 4100 nM in experiment [5]; 54 nM in experiment [7]; 10800 nM in experiment [21]; 3.4 nM in [9]. In [8], this molecule showed a deltaH of -5.4 kcal/mol. The same molecule had a -TdeltaS in experiment [10] of -5.4 kcal/mol. Moreover, in experiment [11], the deltaG was -10.7 kcal/mol.
Consider `C1=C/COCc2cc(ccc2OCCN2CCCC2)Nc2nccc(n2)-c2cccc(c2)COC/1` [PACRITINIB], for which the IC50 in experiment [5] was determined as 536 nM; in [9], 371 nM. Further, the Kd in experiment [12] is 318 nM; in experiment [13], 125 nM.
